Measured values: patent publication US20060025430A1, “Novel irreversible inhibitors of epidermal growth factor receptor tyrosine kinase and uses thereof for therapy and diagnosis” (priority 2003, published 2006)
“Also recorded” adds a separate entry of the source.

Experiments:
EGFR-TK [1] = biological target: T1, EGFR-TK (Homo sapiens, UniProt P00533); assay: EGFR-TK autophosphorylation inhibition in A431 cell lysate (ELISA); assay type: biochemical; settings: read-out: A431 lysate IC50 app
T1 construct: The supernatant, which contained the EGFR, was collected and frozen; endogenous in cells; host or cells: A431 cells (A1: Triton X-100 lysate captured on mAb108; A2: intact cells)
Description: All the following incubations were performed at room temperature and with constant shaking. […] The final volume for each well was 150 μl.
In this step the temperature was kept at 26° C. and the plate was under constant shaking. The incubation with ATP/MnCl2 was for 5 minutes.
Afterward, polyclonal anti-phosphotyrosine serum (Sugen, Inc.) was added (dilution of antibody in TBST containing 5% milk). The incubation was for 45 minutes.

EGFR-TK [2] = biological target: T1, EGFR-TK; assay: EGFR-TK autophosphorylation inhibition in intact A431 cells (irreversibility assay, Western blot); assay type: cell-based; settings: for nature of binding to the receptor (irreversibility): intact A431 cells, inhibition 8 hours post incubation
Description: A431 cells (5×10^5) were seeded in 6-well plates and grown for 24 hours to about 90% confluence in DMEM (high glucose) containing 10% fetal calf serum (FCS) and antibiotics at 37° C. The cells were then exposed to serum-free medium, at 37° C., for 18 hours.
[…] The medium was replaced thereafter with an inhibitor/FCS-free medium and the cells were divided into two groups: cells of the first group were immediately stimulated with EGF (20 ng/ml) for 5 minutes and then washed with PBS, while cells of the second group were incubated for additional 8 hours, at 37° C. During the 8 hours period, the medium was changed three times (after 2, 4 and 8 hours). After the post-incubation period, the cells of the second group were stimulated with EGF (20 ng/ml) for 5 minutes and then washed with PBS.
Identical protein amounts from each lysate sample were loaded onto polyacrylamide gel (6% or 10%), separated by electrophoresis (Hoefer Pharmacia Biotech Inc., San Francisco, USA) and transferred to nitrocellulose membrane (power supply: EPS 500/400, Amersham Pharmacia Biotech; nitrocellulose extra blotting membranes: Sartorius AG, Goettingen, Germany). A standard high molecular weight solution was loaded as a reference. For visualization of molecular weight bands, the membrane was immersed in Ponceau reagent (0.05% Ponceau, 5% acetic acid) for a few minutes, and then washed twice with TTN (10 mM Tris pH 7.4, 0.2% TWEEN 20, 170 mM NaCl) and once with water. The membrane was blocked overnight in TTN containing 5% milk (1% fat) (blocking TTN) and incubated for 90 minutes with PY20 antiphosphotyrosine antibody (Santa Cruz Biotechnology Inc., Santa Cruz, USA) diluted 1:2,000 in blocking TTN. The membrane was then washed with TTN (3×5 minutes), incubated for 90 minutes with a horseradish peroxidase-conjugated secondary antibody (Goat anti-mouse IgG H+L, Jackson ImResearch Laboratories, Inc., diluted 1:10,000 in blocking TTN), and finally washed again with TTN (3×5 minutes).
After the incubation, the media was replaced with inhibitor/FCS-free media and the inhibition effect was measured either immediately thereafter or after 8 hours post incubation.

EGFR = biological target: T2, EGFR (Homo sapiens, UniProt P00533); assay: Selective-inhibition assay in DHER14 cells (receptor phosphotyrosine, Western blot); assay type: cell-based; settings: DHER14 cells expressing EGFR, 1 hour incubation, EGF stimulation
T2 construct: expressed in transfected cells; host or cells: NIH3T3 (DHER14 cells)
Description: (§1) NIH3T3 cells transformed with either the EGFR (DHER14 cells), with the HER1-HER2 chimera (CSH12 cells) or with the PDGFR (NIH/PDGFR cells), decribed by Lee et al.; 1989, Honegger et al., 1988; and Shawver et al. 1997, and A431 human epidermoid vulval carcinoma cells were grown in Dulbecco's modified Eagle's medium (DMEM) (Biological industries, Kibbuts Beit Haemek, Israel) supplemented with 10% fetal calf serum and antibiotics (penicillin […], streptomycin 100 mg/liter) at 37° C. in 5% CO2.
(§2) Selective-inhibition assay: CSH12, DHER14 and […] cells, expressing either the HER1-HER2 chimera, EGFR or PDGFR, respectively, were used for the determination of inhibitory selectivity. Cells (7.5×10^4) were grown in 6-well plates (35 mm diameter, Nalge Nunc) for 24 hours and then incubated in 0.25% FCS-containing medium for an additional 24 hours to about 90% confluence. Duplicate sets of cells were treated with the tested compounds at varying concentrations for 1 hour. The final concentration of the vehicle in the medium was 0.05% DMSO, 0.1% EtOH. After removal of the inhibitor from the medium, PBS wash (×2) and addition of 0.25% serum-containing medium to the wells, the cells were stimulated with either 20 ng/mL human EGF for 5 minutes (CSH12 and DHER14 cells) or 50 ng/ml human PDGFββ for 10 minutes ([…] cells) at 37° C. […]

PDGFR = PDGFR (Homo sapiens, UniProt P09619); assay: Selective-inhibition assay in […] cells (receptor phosphotyrosine, Western blot); assay type: cell-based; settings: […] cells expressing PDGFR, 1 hour incubation, PDGFββ stimulation
Description: as §1, §2

[3] = Challenge reaction with reduced glutathione (HPLC conversion to conjugates); assay type: physicochemical; settings: even at temperatures exceeding 100° C.
[4] = as above; assay type: physicochemical
Description: Standard solutions were prepared by dissolving compound 5, Compound 6 and {4-[(3,4-dichloro-6-fluorophenyl)amino]quinazol ine-6-yl}acrylamide (0.0146 mmol) in 1.75 ml of THF: MeOH (1:2) and glutathione (18 mg, 0.0586 mmol) in 0.5 ml of water. A 300 μL aliquot of the quinazoline standard solution (2.5 μmol) was diluted with 689 μL of THF:MeOH:H2O (1:2:1), after which 11 μL (1.25 μmol) of glutathione solution and 5.22 μL (30 μmol) of N,N′-diisopropylethylamine were added. Conversions of the quinazolines and formation of conjugates at different time points were measured by HPLC using RP (3.9×300 mm) column (mobile phase of acetonirile and acetate buffer 0.1 M (2:3) at a flow rate of 1 ml/min was used herein). The glutathione conjugates were further detected by MS.
As discussed hereinabove, EGFR blockade by irreversible inhibitors is due to the nucleophilic attack of the sulfhydryl group of Cys-773 at the receptor's ATP binding pocket on the reactive chemical group of the EGFR targeted inhibitor. In order to evaluate the chemical reactivity of the novel irreversibly EGFR inhibitors decribed herein, the degree of reactivity of the inhibitors towards the sulfhydryl group of reduced glutathione (GSH) as a nucleophile was tested. Thus, Compound 5, Compound 6 and {4-[(3,4-dichloro-6-fluorophenyl)amino]quinazoline-6-yl}acrylamide were dissolved in THF: MeOH: H2O (1:2:1), and were reacted at room temperature with half an equivalent of reduced glutathione in the presence of 12 equivalents of N,N-diisopropylethylamine. Identical aliquots of the reaction mixtures were taken at various time points and injected into reversed-phase HPLC in order to determine the conversion-rate of the various compounds into glutathione-conjugates. The characteristics of the products were determined using MS.
A study of the reaction rate as a function of the temperature was also performed. Thus, the reaction ws performed at various temperatures ranging from 0° C. and 60° C. The following activation parameters were generated: For {4-[(3,4-dichloro-6-fluorophenyl)amino]quinazoline-6-yl}acrylamide: Ea=5.24 kCalmol^−1, ΔH^#25° C.=4.64 kCalmol^−1 and ΔS^#25° C.=−61.24 Calmol^−1K^−1. For compound 5: Ea=11.4 kCalmol^−1, ΔH^#25° C.=10.80 kCalmol^−1 and ΔS^#25° C.=−41.29 Calmol^−1K^−1.
The reaction rate was calculated using the following rate equation: [formula] kobs=Ae^−Ea/RT

[5] = Intact A431 cells IC50 range (1 hr post incubation with inhibitor), 1 hour incubation with inhibitor, medium replaced, EGF stimulation immediately
[6] = Intact A431 cells IC50 range (8 hr post incubation with inhibitor), 1 hour incubation, then 8 hours in inhibitor-free medium before EGF stimulation

T1 sequence (P00533 25-1210): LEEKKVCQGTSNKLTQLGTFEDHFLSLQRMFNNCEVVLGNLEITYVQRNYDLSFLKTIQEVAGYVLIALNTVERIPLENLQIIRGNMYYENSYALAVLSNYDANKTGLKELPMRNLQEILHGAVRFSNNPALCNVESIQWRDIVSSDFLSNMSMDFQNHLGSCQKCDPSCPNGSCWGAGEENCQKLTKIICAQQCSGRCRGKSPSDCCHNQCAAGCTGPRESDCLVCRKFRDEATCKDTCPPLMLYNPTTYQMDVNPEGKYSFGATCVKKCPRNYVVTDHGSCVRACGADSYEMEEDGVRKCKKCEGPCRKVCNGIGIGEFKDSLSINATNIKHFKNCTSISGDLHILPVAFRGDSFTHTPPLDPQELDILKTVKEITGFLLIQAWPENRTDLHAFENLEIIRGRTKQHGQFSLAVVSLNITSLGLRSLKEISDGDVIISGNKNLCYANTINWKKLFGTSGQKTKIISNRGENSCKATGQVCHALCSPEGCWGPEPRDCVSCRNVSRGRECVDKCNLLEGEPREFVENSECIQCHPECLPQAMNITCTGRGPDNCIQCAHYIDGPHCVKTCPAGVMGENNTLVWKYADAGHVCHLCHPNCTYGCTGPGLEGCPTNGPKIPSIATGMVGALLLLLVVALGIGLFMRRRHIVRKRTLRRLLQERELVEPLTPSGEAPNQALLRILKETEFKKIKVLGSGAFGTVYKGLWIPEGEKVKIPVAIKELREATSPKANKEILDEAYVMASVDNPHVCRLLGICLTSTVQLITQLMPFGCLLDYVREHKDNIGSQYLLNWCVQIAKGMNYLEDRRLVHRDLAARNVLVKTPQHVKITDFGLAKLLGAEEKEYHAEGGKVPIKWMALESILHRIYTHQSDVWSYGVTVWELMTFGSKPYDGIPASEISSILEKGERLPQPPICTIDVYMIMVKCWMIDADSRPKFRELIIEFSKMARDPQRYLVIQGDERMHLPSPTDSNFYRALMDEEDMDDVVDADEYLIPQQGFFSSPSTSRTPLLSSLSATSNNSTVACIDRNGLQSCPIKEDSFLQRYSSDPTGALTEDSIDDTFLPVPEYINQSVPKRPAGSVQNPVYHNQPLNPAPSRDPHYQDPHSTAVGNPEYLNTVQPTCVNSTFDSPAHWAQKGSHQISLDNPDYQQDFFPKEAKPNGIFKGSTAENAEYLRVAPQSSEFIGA
T2 sequence (P00533 25-1210): as above
PDGFR, sequence (P09619 whole entry): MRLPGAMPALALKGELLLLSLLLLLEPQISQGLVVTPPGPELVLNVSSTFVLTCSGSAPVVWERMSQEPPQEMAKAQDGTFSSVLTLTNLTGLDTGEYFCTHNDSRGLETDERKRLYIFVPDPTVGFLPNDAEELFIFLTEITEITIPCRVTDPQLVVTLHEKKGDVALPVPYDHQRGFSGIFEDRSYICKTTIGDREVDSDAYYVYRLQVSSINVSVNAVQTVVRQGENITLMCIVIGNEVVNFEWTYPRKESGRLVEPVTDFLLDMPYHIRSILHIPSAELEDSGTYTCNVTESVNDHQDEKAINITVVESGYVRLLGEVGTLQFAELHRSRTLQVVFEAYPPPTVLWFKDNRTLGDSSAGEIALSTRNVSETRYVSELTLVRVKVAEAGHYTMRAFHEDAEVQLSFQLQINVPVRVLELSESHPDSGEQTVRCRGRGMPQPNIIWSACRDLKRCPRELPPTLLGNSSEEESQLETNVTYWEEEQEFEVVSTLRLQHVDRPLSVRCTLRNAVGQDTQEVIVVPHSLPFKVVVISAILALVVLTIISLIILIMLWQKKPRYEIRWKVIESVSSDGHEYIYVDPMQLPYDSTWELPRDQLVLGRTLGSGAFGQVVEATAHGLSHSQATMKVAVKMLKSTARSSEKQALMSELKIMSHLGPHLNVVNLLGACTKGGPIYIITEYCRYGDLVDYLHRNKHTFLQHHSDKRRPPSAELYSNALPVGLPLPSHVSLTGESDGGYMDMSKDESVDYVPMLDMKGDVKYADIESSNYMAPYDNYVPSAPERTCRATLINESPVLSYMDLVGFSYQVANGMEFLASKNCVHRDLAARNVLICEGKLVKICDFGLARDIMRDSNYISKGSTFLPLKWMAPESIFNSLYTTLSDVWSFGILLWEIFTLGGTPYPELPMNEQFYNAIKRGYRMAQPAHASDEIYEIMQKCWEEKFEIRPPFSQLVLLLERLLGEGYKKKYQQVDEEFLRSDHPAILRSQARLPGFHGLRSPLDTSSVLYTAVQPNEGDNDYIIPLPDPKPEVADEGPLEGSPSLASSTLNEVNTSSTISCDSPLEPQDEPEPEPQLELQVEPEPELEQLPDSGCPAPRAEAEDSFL

Compound | IC50 (EGFR-TK [2]; [5]) [nM] | IC50 (EGFR-TK [2]; [6]) [nM] | IC50 (EGFR-TK [1]) [nM] | melting point [°C] | further results
O=C(CCl)Nc1ccc2ncnc(Nc3cccc(Br)c3)c2c1 [Compound 1, N-{4-[(3-bromophenyl)amino]-quinazolin-6-yl}-2-chloroacetamide] | – | – | – | > 300 | –
COCC(=O)Nc1ccc2ncnc(Nc3cccc(Br)c3)c2c1 [Compound 2, N-{4-[(3-bromophenyl)amino]-quinazolin-6-yl}-2-methoxyacetamide] | – | – | – | 190 to 191 | –
COCC(=O)Nc1ccc2ncnc(Nc3cc(Cl)c(Cl)cc3F)c2c1 [Compound 6, N-{4-[(4,5-Dichloro-2-fluoro-phenyl)amino]-quinazolin-6-yl}-2-methoxyacetamide] | – | – | – | 204 to 206 | nature of binding to the receptor (irreversibility) (EGFR-TK [2]): partial irreversible; IC50 (EGFR): > 250 nM; IC50 (PDGFR): > 1000 nM; change in the reaction rate with GSH with temperature [3]: no change in the reaction rate; also recorded: could not be detected
C=CC(=O)Nc1ccc2ncnc(Nc3cc(Cl)c(Cl)cc3F)c2c1 [Compound A, N-{4-[(3,4-dichloro-6-fluorophenyl)amino]quinazoline-6-yl}acrylamide, reference compound] | – | – | – | – | ΔH^# 25° C. of reaction with reduced glutathione ([4]; 25° C.): 4.64 kCalmol^−1; ΔS^# 25° C. of reaction with reduced glutathione ([4]; 25° C.): −61.24 Calmol^−1K^−1; reaction rate constant with reduced glutathione ([4]; room temperature, THF:MeOH:H2O (1:2:1), half an equivalent GSH, 12 equivalents N,N-diisopropylethylamine): 0.0001 M/min; activation energy Ea of reaction with reduced glutathione ([4]; temperatures from 0° C. to 60° C.): 5.24 kCalmol^−1
COCC(=O)Nc1ccc2ncnc(Nc3cccc(I)c3)c2c1 [Compound 4, N-{4-[(3-iodophenyl)amino]-quinazolin-6-yl}-2-methoxyacetamide] | – | – | – | – | nature of binding to the receptor (irreversibility) (EGFR-TK [2]): partial irreversible
O=C(CCl)Nc1ccc2ncnc(Nc3cccc(I)c3)c2c1 [Compound 3, N-{4-[(3-iodophenyl)amino]-quinazolin-6-yl}-2-chloroacetamide] | – | – | – | > 300 | –

Second part, led by results:

IC50 (EGFR-TK [2]; [5]) [nM] | IC50 (EGFR-TK [2]; [6]) [nM] | IC50 (EGFR-TK [1]) [nM] | melting point [°C] | Compound | further results
5 to 50 | 5 to 50 | – | – | C=CC(=O)Nc1ccc2ncnc(Nc3cc(Cl)c(Cl)cc3F)c2c1 [drawing 14] | IC50 (EGFR-TK [1]; apparent IC50, ELISA, 5 μM ATP/5 mM MnCl2, average of four dose-response curves): 0.037 nM
1000 to 20000 | > 80000 | 65 | – | COCC(=O)Nc1ccc2ncnc(Nc3cccc(I)c3)c2c1 [drawing 18] | –
1 to 20 | 1 to 20 | 5.55 | – | O=C(CCl)Nc1ccc2ncnc(Nc3cc(Cl)c(Cl)cc3F)c2c1 [drawing 19] | –
– | 10000 to 50000 | 113 | – | COCC(=O)Nc1ccc2ncnc(Nc3cc(Cl)c(Cl)cc3F)c2c1 [drawing 20] | –
